Tests used:
[1] = test system: caspase-3; assay: Caspase-3 expression level in HepG-2 cells; assay type: cell-based, human; details: for Caspase-3 ± SE: HepG-2, at IC50 concentrations, control 0.460
Protocol: (§1) All synthesized compounds were tested at their cytotoxic concentrations in HepG-2 cells for analysis of gene expression levels of apoptotic markers caspase-3, caspase-9, TNF-α, and IL-6 proteins, and only two active compounds were tested for BAX and Bcl-2 proteins.
(§2) through Flow cytometric analysis.
(§3) Pellets were collected again and incubated with
(§4) Total RNA from vehicle-treated
(§5) (Thermo Scientific, USA).
(§6) All experiments were performed in […]

[2] = test system: MCF-7; assay: MTT anti-proliferative assay, MCF-7; assay type: cell-based, human
[3] = test system: HepG-2; assay: MTT anti-proliferative assay, HepG-2; assay type: cell-based, human
[4] = test system: caspase-9; assay: Caspase-9 expression level in HepG-2 cells; assay type: cell-based, human; details: for Caspase-9 ± SE: HepG-2, at IC50 concentrations, control 11.01
Protocol: as §1, §2, §3, §4, §5, §6

[5] = biological target: EGFR (Homo sapiens, UniProt P00533); assay: EGFR kinase inhibition assay (ELISA kit)
[6] = test system: K-562; assay: MTT anti-proliferative assay, K-562; assay type: cell-based, human
[7] = test system: IL-6R; assay: IL-6R level in HepG-2 cells; assay type: cell-based, human
Protocol: as §1, §2, §3, §4, §5, §6

[8] = test system: TNF-alpha; assay: TNF-alpha level in HepG-2 cells; assay type: cell-based, human; details: for TNF-alpha ±SE: control 43.48
Protocol: as §1, §2, §3, §4, §5, §6

[9] = biological target: VEGFR-2 (Homo sapiens, UniProt P35968); assay: In vitro VEGFR-2 inhibitory assay (ELISA kit); details: VEGFR-2 kinase
VEGFR-2, sequence (P35968 20-1356): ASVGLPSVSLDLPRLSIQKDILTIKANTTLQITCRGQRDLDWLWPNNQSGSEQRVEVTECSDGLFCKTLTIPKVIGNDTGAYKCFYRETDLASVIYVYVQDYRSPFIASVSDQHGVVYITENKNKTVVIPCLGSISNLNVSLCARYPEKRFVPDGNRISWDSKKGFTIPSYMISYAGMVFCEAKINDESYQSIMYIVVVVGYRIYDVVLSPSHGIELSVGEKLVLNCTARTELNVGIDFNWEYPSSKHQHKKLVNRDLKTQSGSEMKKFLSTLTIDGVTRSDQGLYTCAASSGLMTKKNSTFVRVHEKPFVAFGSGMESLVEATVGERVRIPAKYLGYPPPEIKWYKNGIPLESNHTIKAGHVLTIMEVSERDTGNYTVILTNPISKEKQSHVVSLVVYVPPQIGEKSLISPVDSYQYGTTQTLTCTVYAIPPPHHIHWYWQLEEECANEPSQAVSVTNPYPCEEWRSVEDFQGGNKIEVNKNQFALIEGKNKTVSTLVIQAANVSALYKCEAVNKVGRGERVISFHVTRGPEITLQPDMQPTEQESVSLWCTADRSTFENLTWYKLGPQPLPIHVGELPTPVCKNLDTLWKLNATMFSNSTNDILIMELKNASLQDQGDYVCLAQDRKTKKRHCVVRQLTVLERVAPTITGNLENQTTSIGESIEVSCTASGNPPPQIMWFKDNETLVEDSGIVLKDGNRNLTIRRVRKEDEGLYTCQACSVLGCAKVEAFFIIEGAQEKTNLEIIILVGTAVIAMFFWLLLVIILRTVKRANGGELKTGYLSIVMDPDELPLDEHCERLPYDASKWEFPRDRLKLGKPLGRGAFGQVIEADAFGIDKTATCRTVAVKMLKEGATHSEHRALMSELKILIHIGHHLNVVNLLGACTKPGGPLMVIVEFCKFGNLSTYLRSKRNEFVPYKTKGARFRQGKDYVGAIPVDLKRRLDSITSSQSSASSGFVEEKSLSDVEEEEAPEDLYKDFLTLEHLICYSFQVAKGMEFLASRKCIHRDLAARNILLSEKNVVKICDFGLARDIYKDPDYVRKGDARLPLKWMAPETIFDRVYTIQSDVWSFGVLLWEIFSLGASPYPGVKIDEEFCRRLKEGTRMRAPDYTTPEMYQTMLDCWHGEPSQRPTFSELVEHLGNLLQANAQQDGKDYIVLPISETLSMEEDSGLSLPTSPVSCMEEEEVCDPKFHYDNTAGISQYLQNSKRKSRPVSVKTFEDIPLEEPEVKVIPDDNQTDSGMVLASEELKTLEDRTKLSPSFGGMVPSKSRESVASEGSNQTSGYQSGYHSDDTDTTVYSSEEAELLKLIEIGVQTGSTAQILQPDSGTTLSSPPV

N-(2,6-Dichlorophenyl)-2-(7-nitro-4-oxoquinazolin-3(4H)-yl)acetamide [9d]
Caspase-3 ± SE [1]: 0.68 ± 0.013 ng/mL
Caspase-3 ± SE ([1]; listed as N3): 0.68 ng/mL
caspase-3 expression level, fold increase ([1]; HepG-2, vs control cells): 1.5 fold
Toxicity % ([2]; MCF-7, 0.195 umol): 49.43%
Viability % ([2]; MCF-7, 0.195 umol): 50.57%
Toxicity % ([2]; MCF-7, 0.391 umol): 61.52%
Viability % ([2]; MCF-7, 0.391 umol): 38.48%
Toxicity % ([2]; MCF-7, 0.781 umol): 74.05%
Viability % ([2]; MCF-7, 0.781 umol): 25.95%
Toxicity % ([2]; MCF-7, 1.563 umol): 65.74%
Toxicity % ([2]; MCF-7, 3.125 umol): 91.03%
Viability % ([2]; MCF-7, 3.125 umol): 8.971%
Toxicity % ([2]; MCF-7, 6.25 umol): 92.04%
Viability % ([2]; MCF-7, 6.25 umol): 7.96%
Toxicity % ([2]; MCF-7, 12.5 umol): 93.58%
Viability % ([2]; MCF-7, 12.5 umol): 6.42%
Toxicity % ([2]; MCF-7, 25 umol): 92.88%
Viability % ([2]; MCF-7, 25 umol): 7.124%
IC50 ([2]; MTT, MCF-7, read-out: Cytotoxicity against cancer cells IC50 MCF-7): 0.204 ± 0.0026 µM
Toxicity % ([3]; HepG-2, 0.195 ug/ml): 39.23%
Viability % ([3]; HepG-2, 0.195 ug/ml): 60.77%
Toxicity % ([3]; HepG-2, 0.391 ug/ml): 55.68%
Viability % ([3]; HepG-2, 0.391 ug/ml): 44.32%
Toxicity % ([3]; HepG-2, 0.781 ug/ml): 70.62%
Viability % ([3]; HepG-2, 0.781 ug/ml): 29.38%
Toxicity % ([3]; HepG-2, 1.563 ug/ml): 85.02%
Viability % ([3]; HepG-2, 1.563 ug/ml): 14.98%
Toxicity % ([3]; HepG-2, 3.125 ug/ml): 89.27%
Viability % ([3]; HepG-2, 3.125 ug/ml): 10.73%
Toxicity % ([3]; HepG-2, 6.25 ug/ml): 91.87%
Viability % ([3]; HepG-2, 6.25 ug/ml): 8.132%
Toxicity % ([3]; HepG-2, 12.5 ug/ml): 93.19%
Viability % ([3]; HepG-2, 12.5 ug/ml): 6.813%
Toxicity % ([3]; HepG-2, 25 ug/ml): 93.7%
Viability % ([3]; HepG-2, 25 ug/ml): 6.3%
IC50 ([3]; MTT, HepG-2, read-out: Cytotoxicity against cancer cells IC50 HepG-2): 0.3227 ± 0.0029 µM
Caspase-9 ± SE [4]: 43.52 ± 3.69 ng/L
Caspase-9 ± SE ([4]; listed as N3): 43.52 ng/L
caspase-9 expression level, fold increase ([4]; HepG-2, vs control cells): 3.95 fold
Activity % ([5]; HepG2): 18.428%
Inhibition % ([5]; HepG2): 81.572%
Activity % ([5]; K-562): 16.638%
Inhibition % ([5]; K-562): 83.362%
Activity % ([5]; MCF7): 30.226%
Inhibition % ([5]; MCF7): 69.774%
Toxicity % ([6]; K-562, 0.195 umol): 0.4516%
Viability % ([6]; K-562, 0.195 umol): 99.55%
Toxicity % ([6]; K-562, 0.391 umol): 4.146%
Viability % ([6]; K-562, 0.391 umol): 95.85%
Toxicity % ([6]; K-562, 0.781 umol): 28.41%
Viability % ([6]; K-562, 0.781 umol): 71.59%
Toxicity % ([6]; K-562, 1.563 umol): 39.82%
Viability % ([6]; K-562, 1.563 umol): 60.18%
Toxicity % ([6]; K-562, 3.125 umol): 62.19%
Viability % ([6]; K-562, 3.125 umol): 37.81%
Toxicity % ([6]; K-562, 6.25 umol): 87.81%
Viability % ([6]; K-562, 6.25 umol): 12.19%
Toxicity % ([6]; K-562, 12.5 umol): 90.52%
Viability % ([6]; K-562, 12.5 umol): 9.483%
Toxicity % ([6]; K-562, 25 umol): 92.57%
Viability % ([6]; K-562, 25 umol): 7.43%
IC50 ([6]; MTT, K-562, read-out: Cytotoxicity against cancer cells IC50 K-562): 2.274 ± 0.0035 µM
IL-6R ± SE ([7]; HepG-2, at IC50 concentrations, control 44.10): 16.64 ± 0.83 ng/L
IL-6R protein level ([7]; HepG-2, control 44.10%): 16.64 ng/L
IL-6 ±SE ([7]; raw data, HepG2, control 44.10): 10.13 ng/L
TNF-alpha ±SE ([8]; HepG-2, at IC50 concentrations): 10.2 ± 1.53 ng/L
TNF-α expression level ([8]; HepG-2, control 43.48%): 10.2 ng/L
TNF-alpha ±SE ([8]; raw data, HepG2): 16.01 ng/L
Activity % ([9]; HepG2): 19.818%
Inhibition % ([9]; HepG2): 80.182%
Activity % ([9]; K-562): 41.248%
Inhibition % ([9]; K-562): 58.752%
Activity % ([9]; MCF7): 52.958%
Inhibition % ([9]; MCF7): 47.042%

From article PMC12377202, “Design, synthesis, and cytotoxic evaluation of quinazoline-based derivatives as VEGER-2 inhibitors: comparative study against EGFR kinase activity, induction of apoptosis, and molecular docking study” (RSC Advances, 2025)
